Data published in patent publication US20260049084A1, “ENPP1 MODULATORS AND PRODUCTS AND USES THEREOF” (Gossamer Bio Services, Inc., priority 2022, published 2026).

Experiments:
[1] = molecular target: Recombinant human ENPP1 protein (Homo sapiens (Human), UniProt P22413); experiment: ENPP1 cGAMP Biochemical Assay; conditions: 0.5 nM ENPP1, 1000 nM 2′3′-cGAMP substrate, TR-FRET
In short: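 Recombinant human ENPP1 (final 0.5 nM) preincubated with compound 30 min at room temperature in 50 mM Tris pH 7.5, 1 mM TCEP, 2 mM MgCl2, 0.005% Tween20; 2′3′-cGAMP (1000 nM final) added, 60 min at 25 °C. AMP/GMP product detected by TR-FRET antibody/tracer competition (2 nM), 120 min.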

[2] = molecular target: Recombinant human ENPP3 protein (Homo sapiens (Human), UniProt O14638); experiment: ENPP3 cGAMP Biochemical Assay; conditions: 70.5 nM ENPP3, 120 μM 2′3′-cGAMP substrate, TR-FRET
Chain of Recombinant human ENPP3 protein (O14638 whole entry): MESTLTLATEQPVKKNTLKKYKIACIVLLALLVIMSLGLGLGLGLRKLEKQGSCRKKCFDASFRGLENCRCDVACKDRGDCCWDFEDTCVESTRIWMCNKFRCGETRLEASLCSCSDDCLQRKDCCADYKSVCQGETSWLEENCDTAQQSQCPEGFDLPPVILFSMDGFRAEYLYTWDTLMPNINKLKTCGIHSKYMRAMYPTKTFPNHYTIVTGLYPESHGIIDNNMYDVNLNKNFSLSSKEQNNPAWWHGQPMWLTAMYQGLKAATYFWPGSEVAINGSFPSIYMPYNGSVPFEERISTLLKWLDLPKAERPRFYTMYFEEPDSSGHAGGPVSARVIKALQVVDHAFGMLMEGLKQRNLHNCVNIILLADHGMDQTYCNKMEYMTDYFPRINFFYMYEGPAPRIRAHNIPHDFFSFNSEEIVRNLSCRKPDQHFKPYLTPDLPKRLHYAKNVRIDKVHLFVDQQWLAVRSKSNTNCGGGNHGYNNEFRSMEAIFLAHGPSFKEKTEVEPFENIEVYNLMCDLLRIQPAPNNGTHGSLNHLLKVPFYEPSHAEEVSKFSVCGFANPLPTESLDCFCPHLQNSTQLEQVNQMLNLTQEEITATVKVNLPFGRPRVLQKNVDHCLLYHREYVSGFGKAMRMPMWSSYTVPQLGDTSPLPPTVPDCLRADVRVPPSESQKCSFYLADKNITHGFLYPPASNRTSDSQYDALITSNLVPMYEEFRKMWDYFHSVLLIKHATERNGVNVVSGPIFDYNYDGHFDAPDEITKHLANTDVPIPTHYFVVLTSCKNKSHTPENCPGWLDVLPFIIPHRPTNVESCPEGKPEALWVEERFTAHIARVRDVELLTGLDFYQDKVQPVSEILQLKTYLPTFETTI
In short: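 Compound was preincubated 30 min at room temperature with recombinant human ENPP3 (final 70.5 nM) in Tris pH 7.5 with Mg, Ca, Zn and TCEP. 2′3′-cGAMP (120 μM final) was then hydrolysed for 60 min at 25 °C. AMP/GMP product was detected by TR-FRET tracer-displacement immunoassay after 120 min.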

[3] = molecular target: carbonic anhydrase I enzyme (Homo sapiens (Human), UniProt P00915); experiment: Carbonic Anhydrase 1 Enzymatic Assay; assay type: biochemical; conditions: enzyme from human erythrocyte, 500 μM 4-nitrophenyl acetate, absorbance 400 nm; read-out: CA I IC50
Chain of carbonic anhydrase I enzyme (P00915 whole entry): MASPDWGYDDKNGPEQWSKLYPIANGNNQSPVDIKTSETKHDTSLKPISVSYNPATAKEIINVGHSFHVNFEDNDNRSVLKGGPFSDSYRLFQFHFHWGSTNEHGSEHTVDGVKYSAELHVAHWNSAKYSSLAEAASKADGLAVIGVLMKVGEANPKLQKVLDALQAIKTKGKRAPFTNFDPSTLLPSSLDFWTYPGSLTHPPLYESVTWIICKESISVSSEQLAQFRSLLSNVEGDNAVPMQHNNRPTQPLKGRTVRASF
Experimental: Carbonic Anhydrase 1 Enzymatic Assay
(§1) Test compound and/or vehicle was preincubated with carbonic anhydrase I enzyme (15 μg/ml) isolated from human erythrocyte in reaction buffer (50 mM MOPS solution pH 7.5) for 15 minutes at 25° C. The reaction was initiated by addition of 500 μM 4-nitrophenyl acetate and incubated for 30 minutes. The plate was read on a spectrophotometer (Absorbance: 400 nm)

[4] = molecular target: carbonic anhydrase II enzyme (Homo sapiens (Human), UniProt P00918); experiment: Carbonic Anhydrase 2 Enzymatic Assay; assay type: biochemical; conditions: enzyme from human erythrocyte, 500 μM 4-nitrophenyl acetate, absorbance 400 nm; read-out: CA II IC50
Experimental: Carbonic Anhydrase 2 Enzymatic Assay
as §1, with “II” for “I”

Chain of Recombinant human ENPP1 protein (P22413 whole entry): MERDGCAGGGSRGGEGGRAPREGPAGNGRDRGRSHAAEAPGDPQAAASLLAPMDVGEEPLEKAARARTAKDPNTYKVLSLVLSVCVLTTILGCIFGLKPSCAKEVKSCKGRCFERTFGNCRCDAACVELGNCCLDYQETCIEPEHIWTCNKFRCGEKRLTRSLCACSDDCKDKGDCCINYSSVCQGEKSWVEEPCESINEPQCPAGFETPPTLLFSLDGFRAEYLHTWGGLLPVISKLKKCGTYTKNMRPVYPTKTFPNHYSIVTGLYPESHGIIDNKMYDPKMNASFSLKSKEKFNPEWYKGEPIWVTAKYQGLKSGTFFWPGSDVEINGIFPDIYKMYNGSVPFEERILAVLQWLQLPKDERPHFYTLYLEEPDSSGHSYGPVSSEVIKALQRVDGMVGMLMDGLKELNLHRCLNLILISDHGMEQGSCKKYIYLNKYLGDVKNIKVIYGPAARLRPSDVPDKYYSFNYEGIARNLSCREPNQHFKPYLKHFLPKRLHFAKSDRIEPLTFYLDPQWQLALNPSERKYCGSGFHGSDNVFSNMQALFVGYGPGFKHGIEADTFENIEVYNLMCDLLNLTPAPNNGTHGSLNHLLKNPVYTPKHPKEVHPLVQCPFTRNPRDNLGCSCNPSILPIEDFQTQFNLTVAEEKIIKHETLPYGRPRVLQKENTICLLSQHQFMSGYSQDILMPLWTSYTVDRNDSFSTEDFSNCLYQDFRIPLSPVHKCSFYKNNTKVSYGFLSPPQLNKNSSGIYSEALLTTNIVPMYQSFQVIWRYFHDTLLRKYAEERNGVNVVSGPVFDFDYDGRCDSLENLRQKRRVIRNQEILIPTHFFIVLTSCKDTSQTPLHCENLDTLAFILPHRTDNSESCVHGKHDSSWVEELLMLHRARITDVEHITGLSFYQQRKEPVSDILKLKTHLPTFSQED

Row | Compound | IC50 [1] | IC50 [2] | IC50 [3] | IC50 [4]
1 | N#CCn1nc(Cl)c2c(NCc3ccc(S(N)(=O)=NC#N)cc3)ccnc21 (stereo not drawn) [Compound 12H, 4-(((3-chloro-1-(cyanomethyl)-1H-pyrazolo[3,4-b]pyridin-4-yl)amino)methyl)-N′-cyanobenzenesulfonimidamide] | < 10 nM | < 10 nM | 100 to 1000 nM | ≥ 1000 nM
2 | C#CCn1nc(Cl)c2c(NCc3ccc(S(N)(=O)=NC#N)cc3)ccnc21 (stereo not drawn) [Compound 12I, 4-(((3-chloro-1-(prop-2-yn-1-yl)-1H-pyrazolo[3,4-b]pyridin-4-yl)amino)methyl)-N′-cyanobenzenesulfonimidamide] | < 10 nM | < 10 nM | 100 to 1000 nM | ≥ 1000 nM
3 | C#CCn1nc(Cl)c2c(NCc3ccc([S@](=N)(=O)NC#N)cc3)ccnc21 [Compound 12J, (R)-4-(((3-chloro-1-(prop-2-yn-1-yl)-1H-pyrazolo[3,4-b]pyridin-4-yl)amino)methyl)-N-cyanobenzenesulfonimidamide] | < 10 nM | < 10 nM | 100 to 1000 nM | ≥ 1000 nM
4 | C#CCn1nc(Cl)c2c(NCc3ccc([S@@](=N)(=O)NC#N)cc3)ccnc21 [Compound 12K, (S)-4-(((3-chloro-1-(prop-2-yn-1-yl)-1H-pyrazolo[3,4-b]pyridin-4-yl)amino)methyl)-N-cyanobenzenesulfonimidamide] | < 10 nM | < 10 nM | 100 to 1000 nM | 100 to 1000 nM
5 | CCn1nc(Cl)c2c(NCC3CCN(S(=N)(=O)CCC#N)CC3)ccnc21 (stereo not drawn) [Compound 14E, 3-(4-(((3-chloro-1-ethyl-1H-pyrazolo[3,4-b]pyridin-4-yl)amino)methyl)piperidine-1-sulfonimidoyl)propanenitrile] | 10 to 100 nM | ≥ 1000 nM | ≥ 1000 nM | ≥ 1000 nM
6 | C#CCn1nc(Cl)c2c(NCC3CCN(S(N)(=O)=NC)CC3)ccnc21 (stereo not drawn) [Compound 15D, 4-(((3-chloro-1-(prop-2-yn-1-yl)-1H-pyrazolo[3,4-b]pyridine-4-yl)amino)methyl)-N′-methylpiperidine-1-sulfonimidamide] | < 10 nM | 10 to 100 nM | ≥ 1000 nM | ≥ 1000 nM
7 | N#CCn1nc(Cl)c2c(NCC3CCN([S@@](N)(=O)=NC#N)CC3)ccnc21 [Compound 15E, (S)-4-(((3-chloro-1-(cyanomethyl)-1H-pyrazolo[3,4-b]pyridine-4-yl)amino)methyl)-N′-cyanopiperidine-1-sulfonimidamide] | < 10 nM | < 10 nM | 100 to 1000 nM | ≥ 1000 nM
8 | N#CCn1nc(Cl)c2c(NCC3CCN([S@](N)(=O)=NC#N)CC3)ccnc21 [Compound 15F, (R)-4-(((3-chloro-1-(cyanomethyl)-1H-pyrazolo[3,4-b]pyridin-4-yl)amino)methyl)-N′-cyanopiperidine-1-sulfonimidamide] | < 10 nM | < 10 nM | 100 to 1000 nM | 100 to 1000 nM
9 | CN=[S@@](N)(=O)N1CCC(CNc2ccnc3c2c(Cl)nn3CC#N)CC1 [Compound 15H, (R)-4-(((3-chloro-1-(cyanomethyl)-1H-pyrazolo[3,4-b]pyridin-4-yl)amino)methyl)-N′-methylpiperidine-1-sulfonimidamide] | < 10 nM | 100 to 1000 nM | ≥ 1000 nM | ≥ 1000 nM
